Assay results taken from US9399030B2, “Topically applied circulation enhancing agent and skin and hair cosmetic and bath agent containing the same” (AJINOMOTO CO., INC., priority 2005, dated 2016).

Tests used:
conchae of hairless mice = assay: Vasodilating effect on the conchae of hairless mice, visual evaluation of red spots (Examples 2 and 4); assay type: in vivo, hairless mouse (HR-1, female); conditions: for Vasodilating effect, 1 wt %: 1 wt % in liquid paraffin; for Vasodilating effect, 1 wt % / Vasodilating effect, 5 wt %: symbols not defined in the patent; for Vasodilating effect, 5 wt %: 5 wt % in liquid paraffin; for Activity compared with capsiate: statement in the description; for Remarks: vasodilating effect: in liquid paraffin
Description: The vasodilating effects of capsinoids (a mixed product prepared by the method stated in Reference Example (5) was employed; see below) and capsaicin was compared using the conchae of hairless mice.
Test Method: A sample was applied on the right ear and a control was applied on the left ear of a hairless mouse (HR-1, female), and the development of red spots was visually evaluated.
Sample: (1) Capsinoids (1 weight percent and 5 weight percent dissolved in liquid paraffin)
(2) Capsaicin (1 weight percent and 5 weight percent dispersed in liquid paraffin)
(§1) In the same manner as in Example 2, the vasodilating effects of various capsinoid compounds were compared using the conchae of hairless mice. The samples were dissolved in liquid paraffin.

[1] = Dissolution of the sample in liquid paraffin (Example 4); assay type: physicochemical
Protocol: as §1

SMILES	Vasodilating effect, 5 wt % (conchae of hairless mice)	Activity compared with capsiate (conchae of hairless mice)	Remarks: vasodilating effect (conchae of hairless mice)	also measured
COc1cc(CNC(=O)CCCC/C=C/C(C)C)ccc1O [Capsaicin, capsaicin, reference compound]	◯			Remarks: red spots still caused after (conchae of hairless mice; 1 weight percent application): even after two hours; Persistence of red spots (conchae of hairless mice; 1 weight percent dispersed in liquid paraffin): retained their original form even after two hours; Development of red spots (visual evaluation) (conchae of hairless mice; 1 weight percent in liquid paraffin, applied on ear): red spots were observed; Vasodilating effect, 1 wt % (conchae of hairless mice): ◯; Development of red spots (visual evaluation) (conchae of hairless mice; 5 weight percent in liquid paraffin, 30 minutes after application): clear red spots were observed
COc1cc(COC(=O)CCCC/C=C/C(C)C)ccc1O [Capsiate, 4-hydoxy-3-methoxybenzyl (E)-8-methyl-6-nonenoate]	◯			Vasodilating effect, 1 wt % (conchae of hairless mice): Δ; Remarks: weak red spots still caused after (conchae of hairless mice; 5 weight percent application): caused even after 90 minutes
COc1cc(COC(=O)CCCCCCC(C)C)ccc1O [Dihydrocapsiate, 4-hydroxy-3-methoxybenzyl 8-methylnonanoate]	◯			Vasodilating effect, 1 wt % (conchae of hairless mice): Δ; Remarks: weak red spots still caused after (conchae of hairless mice; 5 weight percent application): caused even after 90 minutes
COc1cc(COC(=O)CCCCCC(C)C)ccc1O [Nordihydrocapsiate, nordihydrocapsiate]	◯			Vasodilating effect, 1 wt % (conchae of hairless mice): Δ; Remarks: weak red spots still caused after (conchae of hairless mice; 5 weight percent application): caused even after 90 minutes
CCC(C)CCCCC(=O)OCc1ccc(O)c(OC)c1 (centres unmarked) [Vanillyl 6-methyloctanoate, vanillyl 6-methyloctanoate]	◯	about the same degree of activity as capsiate		Remarks: disappearance of the vasodilating effect (conchae of hairless mice; 5 weight percent application): disappeared in about two hour
CCC(C)CCCCCC(=O)OCc1ccc(O)c(OC)c1 (centres unmarked) [Vanillyl 7-methylnonanoate, vanillyl 7-methylnonanoate]	◯	about the same degree of activity as capsiate		Remarks: disappearance of the vasodilating effect (conchae of hairless mice; 5 weight percent application): disappeared in about two hour
CCC(C)CCCCCCC(=O)OCc1ccc(O)c(OC)c1 (centres unmarked) [Vanillyl 8-methyldecanoate, vanillyl 8-methyldecanoate]	◯	about the same degree of activity as capsiate		Remarks: disappearance of the vasodilating effect (conchae of hairless mice; 5 weight percent application): disappeared in about two hour
COc1cc(COC(=O)CCCCCCCC(C)C)ccc1O [Vanillyl 9-methyldecanoate, vanillyl 9-methyldecanoate]	◯	about the same degree of activity as capsiate		Remarks: disappearance of the vasodilating effect (conchae of hairless mice; 5 weight percent application): disappeared in about two hour
COc1cc(CO)ccc1O [Vanillyl alcohol, reference compound]			No vasodilating effect	
CCCCCCCCCC(=O)OCc1ccc(O)c(OC)c1 [Vanillyl decanoate, 4-hydroxy-3-methoxybenzyl decanoate (caprate)]	◯	about the same degree of activity as capsiate		Remarks: disappearance of the vasodilating effect (conchae of hairless mice; concentration not given): Vasodilating effect disappeared in about one hour
CCCCCCCCCCCC(=O)OCc1ccc(O)c(OC)c1 [Vanillyl dodecanoate]			No vasodilating effect	
CC/C=C\C/C=C\C/C=C\CCCCCCCC(=O)OCc1ccc(O)c(OC)c1 [Vanillyl linolenate]			No vasodilating effect	
CCCCCCCCCCCCCCCCCC(=O)OCc1ccc(O)c(OC)c1 [Vanillyl octadecanoate]			No vasodilating effect	
CCCCCCCC(=O)OCc1ccc(O)c(OC)c1 [Vanillyl octanoate, 4-hycroxy-3-methoxybenzyl octanoate]	◯	about the same degree of activity as capsiate		Remarks: disappearance of the vasodilating effect (conchae of hairless mice; concentration not given): Vasodilating effect disappeared in about one hour
CCCCCCCC/C=C\CCCCCCCC(=O)OCc1ccc(O)c(OC)c1 [Vanillyl oleate]			No vasodilating effect	
CCCCCCCCCCCCCCC(=O)OCc1ccc(O)c(OC)c1 [Vanillyl pentadecanoate]				Remarks: dissolution in liquid paraffin [1]: Not dissolved
CCCCCCCCCCCCC(=O)OCc1ccc(O)c(OC)c1 [Vanillyl tridecanoate]			No vasodilating effect	
CCCCCCCCCCC(=O)OCc1ccc(O)c(OC)c1 [Vanillyl undecanoate, vanillyl undecanoate]	◯	about the same degree of activity as capsiate		Remarks: disappearance of the vasodilating effect (conchae of hairless mice; concentration not given): the effect disappeared more quickly than for C10.
CCCCCCCCC(=O)OCc1ccc(O)c(OC)c1 [vanillyl nonanoate, 4-hydroxy-3-methyloxybenzyl nonanoate]		about the same degree of activity as capsiate		
